Assay results published in ChEMBL document CHEMBL1921693, “Efficient synthesis and in vitro antitubercular activity of 1,2,3-triazoles as inhibitors of Mycobacterium tuberculosis” (2011).
≈ marks a conversion by molar mass, not a printed value.

Experiments:
[1] = system: Mycobacterium tuberculosis; test: Antituberculosis activity against Mycobacterium tuberculosis H37Rv by agar dilution method; type: functional
[2] = system: Mycobacterium tuberculosis; test: Ratio of ethambutol MIC to compound MIC for Mycobacterium tuberculosis H37Rv; type: functional

SMILES: CCOC(=O)c1nnn(Cc2ccccc2)c1C(=O)OCC
- MIC [1]: 12.5 µg/mL (≈ 41.2 µM)

SMILES: CCOC(=O)c1nnn(CC(=O)c2ccccc2)c1C(=O)OCC
- MIC [1]: 3.13 µg/mL (≈ 9.45 µM)

SMILES: CCOC(=O)c1nnn(CC(=O)c2ccc(OC)cc2)c1C(=O)OCC
- MIC [1]: 6.25 µg/mL (≈ 17.3 µM)

SMILES: CCOC(=O)c1nnn(CC(=O)c2ccc(Br)cc2)c1C(=O)OCC
- MIC [1]: 1.56 µg/mL (≈ 3.8 µM)
- Ratio [2]: 2.08

SMILES: CCOC(=O)c1nnn(CC(=O)c2ccc(Cl)cc2)c1C(=O)OCC
- MIC [1]: 3.13 µg/mL (≈ 8.56 µM)

SMILES: CCOC(=O)c1nnn(CC(=O)OC)c1C(=O)OCC
- MIC [1]: > 25 µg/mL

SMILES: CCOC(=O)Cn1nnc(C(=O)OCC)c1C(=O)OCC
- MIC [1]: > 25 µg/mL

SMILES: COC(=O)c1nnn(Cc2ccccc2)c1C(=O)OC
- MIC [1]: 25 µg/mL (≈ 90.8 µM)

SMILES: COC(=O)c1nnn(CC(=O)c2ccccc2)c1C(=O)OC
- MIC [1]: 12.5 µg/mL (≈ 41.2 µM)

SMILES: COC(=O)c1nnn(CC(=O)c2ccc(OC)cc2)c1C(=O)OC
- MIC [1]: 12.5 µg/mL (≈ 37.5 µM)

SMILES: COC(=O)c1nnn(CC(=O)c2ccc(Br)cc2)c1C(=O)OC
- MIC [1]: 3.13 µg/mL (≈ 8.19 µM)

SMILES: COC(=O)c1nnn(CC(=O)c2ccc(Cl)cc2)c1C(=O)OC
- MIC [1]: 6.25 µg/mL (≈ 18.5 µM)

SMILES: COC(=O)Cn1nnc(C(=O)OC)c1C(=O)OC
- MIC [1]: > 25 µg/mL

SMILES: CCOC(=O)Cn1nnc(C(=O)OC)c1C(=O)OC
- MIC [1]: > 25 µg/mL

SMILES: CC[C@@H](CO)NCCN[C@@H](CC)CO [ETHAMBUTOL]
- MIC [1]: 3.25 µg/mL (≈ 15.9 µM)

SMILES: NNC(=O)c1ccncc1 [ISONIAZID]
- MIC [1]: 0.75 µg/mL (≈ 5.47 µM)
